Reference: US20130252811A1, “NOVEL HERBICIDE” (priority 2009, published 2013)

Tests used:
[1] = tested on: Echinochloa crus-galli (ECHCG); assay: Flooded Echinochloa crus-galli, visual herbicidal damage (Biological Example 1, Test 125); assay type: in vivo; details: 14 DAA
Method: (§1) Rice seeds, variety IR-64 (an indica type of rice), were sown in seed trays. After 7 days the resulting plants were transplanted as 3 groups of 2 plants, into pots containing a standard sandy loam soil saturated with water replicating swampy conditions. These were grown on for a further 9 days in a glasshouse bay (30/20° C. day/night; 18/6 hours light/dark; 75% humidity). Leptochloa chinensis (LEFCH) and Echinochloa crus-galli (ECHCG) were sown as 2 separate groups of approx 10-20 seeds into pots 13 days prior to application of the test substances, in the same glasshouse conditions as the rice. Therefore, each pot of weeds contained a group of LEFCH and a separate group of ECHCG. All pots of rice and all pots of weeds were flooded to 2-3 cm water depth the day prior to application of the test substances. Growth stages at time of application were as follows: Rice: from 2 leaves on the main stem up to tillering; ECHCG: from 2 leaves on the main stem up to tillering; LEFCH: 2-3 leaves.
(§2) Test solutions were prepared by mixing the appropriate aliquots of the test substances in deionised water to give the desired treatment concentration. Most of the test substances were used as formulated products. Specifically, compound A-4 was applied as the EC050 formulation disclosed in Formulation Example 1 herein (EC=emulsifiable concentrate). Compound A-7 was applied as the EC050 Formulation disclosed in Formulation Example 2 herein. Compound A-9 was applied as the EC050 Formulation disclosed in Formulation Example 3 herein. Pyroxasulfone (a comparator co-herbicide) was applied as the SC050 formulation disclosed in Reference Formulation Example 7 herein (SC=Suspension concentrate). Imazosulfuron (a comparator co-herbicide) was applied as a GR0.25 formulation (GR=granule).
(§3) The test substances which were pure active ingredient (e.g. propyrisulfuron & fenoxasulfone) (labelled as ‘Technical’ in the following results table), were prepared by dissolving in 10.56% Emulsogen EL™ (castor oil ethoxylate, CAS Registry number 61791-12-6), 42.22% N-methylpyrrolidone and 42.22% dipropylene glycol mono-ethyl ether to give a stock solution containing 5% of the test substance and 95% of (Emulsogen EL™, N-methylpyrrolidone and dipropylene glycol mono-ethyl ether).
(§4) Application of the test substances was made by pipetting the required amount of the test solution or the test formulation gently into the flood water of the appropriate pot.
(§5) The test plants were then grown on in the same glasshouse conditions, and watered twice daily keeping the flood water at a depth of 2-3 cm.
(§6) A visual assessment of the % herbicidal damage was made 7 & 14 days after application (DAA), and the results are presented herein as % visual herbicidal damage where 0=no damage to plants and 100=total kill.

[2] = tested on: Leptochloa chinensis (LEFCH); assay: Flooded Leptochloa chinensis, visual herbicidal damage (Biological Example 1, Test 125); assay type: in vivo; details: 14 DAA
Method: as §1, §2, §3, §4, §5, §6

Rice IR-64 = assay: Flooded transplanted rice, visual herbicidal damage (Biological Example 1, Test 125); assay type: in vivo, variety IR-64 (indica); details: 14 DAA, co-herbicide alone 10 g/ha
Method: as §1
Test solutions were prepared by mixing the appropriate aliquots of the test substances in deionised water to give the desired treatment concentration. Most of the test substances were used as formulated products. Specifically, compound A-4 was applied as the EC050 formulation disclosed in Formulation Example 1 herein (EC=emulsifiable concentrate). […]

[3] = compound of formula (I) 60 g/ha, no co-herbicide, 0=no damage, 100=total kill
[4] = compound of formula (I) 90 g/ha, no co-herbicide
[5] = compound of formula (I) 120 g/ha, no co-herbicide

CCc1ccc(-c2ccc(Cl)cc2Cl)cc1C1C(=O)C(C)(C)OC(C)(C)C1=O [compound A-7]
% damage to ECHCG [1, 3]: 35% | % damage to ECHCG [1, 4]: 55% | % damage to ECHCG [1, 5]: 65% | % damage to LEFCH [2, 3]: 0% | % damage to LEFCH [2, 4]: 5% | % damage to LEFCH [2, 5]: 5%

CCc1ccc(-c2ccc(Cl)cc2F)cc1C1C(=O)C(C)(C)OC(C)(C)C1=O [compound A-4]
% damage to ECHCG [1, 3]: 55% | % damage to ECHCG [1, 4]: 85% | % damage to ECHCG [1, 5]: 90% | % damage to LEFCH [2, 3]: 0% | % damage to LEFCH [2, 4]: 0% | % damage to LEFCH [2, 5]: 20%

CCCc1ccc2nc(Cl)c(S(=O)(=O)NC(=O)Nc3nc(OC)cc(OC)n3)n2n1 [propyrisulfuron, reference compound]
% damage to ECHCG ([1]; co-herbicide alone 80 g/ha): 80% | % damage to LEFCH ([2]; co-herbicide alone 80 g/ha): 0%

CCc1ccc(-c2ccc(Cl)cc2Cl)cc1C1=C(OC(=O)OC)C(C)(C)OC(C)(C)C1=O [compound A-9]
% damage to ECHCG [1, 3]: 15% | % damage to ECHCG [1, 4]: 40% | % damage to ECHCG [1, 5]: 70% | % damage to LEFCH [2, 3]: 80% | % damage to LEFCH [2, 4]: 80% | % damage to LEFCH [2, 5]: 90% | herbicidal activity against LEFCH ([2]; compound alone (EC formulation) at 60, 90 or 120 g/ha): 80-90%

CCOc1cc(Cl)c(CS(=O)(=O)C2=NOC(C)(C)C2)cc1Cl [fenoxasulfone, reference compound]
% damage to ECHCG ([1]; co-herbicide alone 200 g/ha): 65% | % damage to LEFCH ([2]; co-herbicide alone 200 g/ha): 70%

Cn1nc(C(F)(F)F)c(CS(=O)(=O)C2=NOC(C)(C)C2)c1OC(F)F [pyroxasulfone, reference compound]
% damage to Rice IR-64 (Rice IR-64): 45% | % damage to ECHCG ([1]; co-herbicide alone 10 g/ha): 60% | % damage to LEFCH ([2]; co-herbicide alone 10 g/ha): 70%

COc1cc(OC)nc(NC(=O)NS(=O)(=O)c2c(Cl)nc3ccccn23)n1 [imazosulfuron, reference compound]
% damage to ECHCG ([1]; co-herbicide alone 80 g/ha): 50% | % damage to LEFCH ([2]; co-herbicide alone 80 g/ha): 0%
